Assay results reported in patent publication US20110065629A1, “ENTERAL NUTRIENT” (AMINO UP CHEMICAL CO., LTD., priority 2008, published 2011).

Test system: Dendritic cells separated from the bone marrow and spleen
Experiment: External appearance of dendritic cells in plastic dishes with or without LPS
Format: cell-based, normal mice
Details: AHCC 5 mg/ml, β-glucan 1 mg/ml
Description: Dendritic cells separated from the bone marrow and spleen of normal mice were placed in plastic dishes to measure the external appearances of dendritic cells in the case of adding only LPS so as to achieve a final concentration of 5 μg/ml and in the case of adding LPS and AHCC (final concentration: 5 mg/ml) or β-glucan (final concentration: 1 mg/ml).

β-glucan
Cell morphology (LPS stimulation (5 μg/ml)): Deformation | Cell morphology (Normal condition): Spherical
